The source of these data is PMC9596378, “Discovery and molecular basis of subtype-selective cyclophilin inhibitors” (Nature Chemical Biology, 2022).

Bounds are passed on as bounds.

For one experiment, the target named is CypD (Homo sapiens, UniProt P30405). The experiment can be described thus: Chymotrypsin coupled prolyl-isomerase assay.
Sequence of CypD (P30405 45-207): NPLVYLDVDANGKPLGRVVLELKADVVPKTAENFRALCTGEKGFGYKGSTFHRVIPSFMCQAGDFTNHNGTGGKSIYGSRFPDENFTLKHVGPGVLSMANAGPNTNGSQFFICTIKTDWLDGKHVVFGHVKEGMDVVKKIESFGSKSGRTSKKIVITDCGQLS
Details: not given
On the procedure: Five microliters of compound pre-dissolved in 5% DMSO/assay buffer was then added to appropriate wells and incubated at 2–3 °C for 5 min. Five microliters of 0.5 mM α-chymotrypsin from bovine pancreas (Type II, lyophilized powder, Millipore-Sigma) in 20% 1 mM HCl/Assay Buffer was then added to each well and incubated at 2–3 °C for 5 min. The plate was then quickly transferred to a FLIPR Tetra High-Throughput Cellular Screening System (Molecular Devices). Using the internal liquid handling system of the FLIPR, 1 µL 0.5 mM Suc-AAPF-AMC (Chymotrypsin Substrate II, Millipore-Sigma) dissolved in 0.55 M LiCl/2,2,2-trifluoroethanol was added to each well, which was then mixed for 5 s, followed by immediate fluorescence measurements every 1 s for 330 s using a 360–380 nm excitation LED module and a 400–460 nm emission filter. […] Raw fluorescence data was analyzed by non-linear regression analysis with Prism v.9 by fitting one-phase association curves to each well. […] Rate constants calculated for each well (s^−1) were then normalized to substrate only (no prolyl-isomerase) and enzyme + substrate only controls.
One may read the IC50 as the midpoint of a concentration-inhibition curve. Read a low IC50 as higher potency. For the compound `NCCOCCNC(=O)C1CCNC(=O)C=CC(=O)N2CCCC(C2)C(=O)NC(Cc2ccco2)C(=O)NCc2ccccc2C(=O)N1` (centres unmarked) [Compound A1], the half-inhibitory concentration (IC50) was > 100 µM. As to `NCCOCCNC(=O)C1CCNC(=O)C=CC(=O)N2CCCC(C2)C(=O)NC(Cc2ccco2)C(=O)Nc2ccccc2CC(=O)N1` (centres unmarked) [Compound A2], the IC50 was > 100 µM. Take `NCCOCCNC(=O)C1CCNC(=O)C=CC(=O)N2CCCC(C2)C(=O)NC(Cc2ccco2)C(=O)NC2C=CC(C2)C(=O)N1` (centres unmarked) [Compound A4]: the 50% inhibitory concentration (IC50) was > 100 µM. On to `NCCOCCNC(=O)C1CCNC(=O)C=CC(=O)N2CCCC(C2)C(=O)NC(Cc2ccco2)C(=O)Nc2ccccc2C(=O)N1` (centres unmarked) [Compound A6], for which the IC50 is > 100 µM. Turning to `NCCOCCNC(=O)C1CCNC(=O)C=CC(=O)N2CCCC(C2)C(=O)NC(Cc2ccco2)C(=O)NCc2ccccc2CC(=O)N1` (centres unmarked) [Compound A7], the IC50 is > 100 µM.

As to `CC1NC(=O)C2CCCN(C2)C(=O)C=CC(=O)NCCC(C(=O)NCCOCCN)NC(=O)Cc2ccccc2CNC1=O` (centres unmarked) [Compound A8], the IC50 is > 100 µM. In turn, `NCCOCCNC(=O)C1CCNC(=O)C=CC(=O)N2CCCC(C2)C(=O)NC(Cc2ccccc2)C(=O)NCc2ccccc2CC(=O)N1` (centres unmarked) [Compound A9] registered an IC50 of 17 ± 6 µM. On to `CC(C)CC1NC(=O)C2CCCN(C2)C(=O)C=CC(=O)NCCC(C(=O)NCCOCCN)NC(=O)Cc2ccccc2CNC1=O` (centres unmarked) [Compound A10], for which the IC50 was > 100 µM. Compound `NCCOCCNC(=O)C1CCNC(=O)C=CC(=O)N2CCCC(C2)C(=O)NC(CC=Cc2ccccc2)C(=O)NCc2ccccc2CC(=O)N1` (centres unmarked) [Compound A11] showed an IC50 of 17 ± 4 µM. For the compound `NCCOCCNC(=O)C1CCNC(=O)C=CC(=O)N2CCCC(C2)C(=O)NC(CC2CCCCC2)C(=O)NCc2ccccc2CC(=O)N1` (centres unmarked) [Compound A12], the IC50 is > 100 µM.

Compound `NCCOCCNC(=O)C1CCNC(=O)C=CC(=O)N2CCCC(C2)C(=O)NC(Cc2ccc(-c3ccccc3)cc2)C(=O)NCc2ccccc2CC(=O)N1` (centres unmarked) [Compound A15] registered an IC50 of 18 ± 3 µM.

Turning to `NCCOCCNC(=O)C1CCNC(=O)C=CC(=O)N2CCCC(C2)C(=O)NC(CCc2ccccc2)C(=O)NCc2ccccc2CC(=O)N1` (centres unmarked) [Compound A16], the IC50 is > 100 µM. With `NCCOCCNC(=O)C1CCNC(=O)C=CC(=O)N2CCCC(C2)C(=O)NC(Cc2cccs2)C(=O)NCc2ccccc2CC(=O)N1` (centres unmarked) [Compound A17], the IC50 amounted to 14 ± 3 µM. `Cc1cccc(CC2NC(=O)C3CCCN(C3)C(=O)C=CC(=O)NCCC(C(=O)NCCOCCN)NC(=O)Cc3ccccc3CNC2=O)c1` (centres unmarked) [Compound A19] yielded an IC50 of 22 ± 3 µM. `CC(C)(C)c1ccc(CC2NC(=O)C3CCCN(C3)C(=O)C=CC(=O)NCCC(C(=O)NCCOCCN)NC(=O)Cc3ccccc3CNC2=O)cc1` (centres unmarked) [Compound A20]: the IC50 came out at 10 ± 2 µM.

For `NCCOCCNC(=O)C1CCNC(=O)C=CC(=O)N2CCCC(C2)C(=O)NC(Cc2ccco2)C(=O)NCc2ccccc2CC(=O)N1` (centres unmarked) [Compound A21], the half-maximal inhibitory concentration (IC50) was > 100 µM. Turning to `NCCOCCNC(=O)C1CCNC(=O)C=CC(=O)N2CCCCC2C(=O)NC(Cc2ccco2)C(=O)NCc2ccccc2CC(=O)N1` (centres unmarked) [Compound A23], the half-inhibitory concentration (IC50) is > 100 µM.

As for `NCCOCCNC(=O)C1CCNC(=O)C=CC(=O)N2CCC(C2)C(=O)NC(Cc2ccco2)C(=O)NCc2ccccc2CC(=O)N1` (centres unmarked) [Compound A24], the IC50 is > 100 µM.

Consider `NCCOCCNC(=O)C1CCNC(=O)C=CC(=O)NC2CCCC(C2)C(=O)NC(Cc2ccco2)C(=O)NCc2ccccc2CC(=O)N1` (centres unmarked) [Compound A28], for which the IC50 stood at 10 ± 2 µM. In turn, `NCCOCCNC(=O)C1CCNC(=O)C=CC(=O)NC2CCCC(C2)C(=O)NC(Cc2ccco2)C(=O)NCc2ccccc2CC(=O)N1` (centres unmarked) [Compound A29] showed an IC50 of 6.2 ± 0.9 µM. Still for that read-out and setting: in the case of `NCCOCCNC(=O)C1CCNC(=O)CCC(=O)N2CCCC(C2)C(=O)NC(Cc2ccco2)C(=O)NCc2ccccc2CC(=O)N1` (centres unmarked) [Compound A30] it was > 100 µM.

For `CC(C)(C)CC1NC(=O)C(CC2CCCCC2)NC(=O)C2CCCN2C(=O)C=CC(=O)NCc2cccc(c2)CC(C(=O)NCCOCCN)NC1=O` (centres unmarked) [HJJJt/c], the “CypD prolyl-isomerase inhibition (in words)” value was “no prolyl-isomerase inhibition”. Take `CC(C)(C)CC1NC(=O)C(Cc2ccco2)NC(=O)C2CCCN2C(=O)C=CC(=O)NCc2cccc(c2)CC(C(=O)NCCOCCN)NC1=O` (centres unmarked) [HOJJt/c]: the “CypD prolyl-isomerase inhibition (in words)” value is “no prolyl-isomerase inhibition”. For `NC(=O)C1CCNC(=O)C=CC(=O)N2CCCC(CC(=O)NC(Cc3ccco3)C(=O)NCc3ccccc3CC(=O)N1)C2` (centres unmarked) [JOBBc-A], the IC50 is > 100 µM.

Compound `NCCOCCNC(=O)C1CCNC(=O)C=CC(=O)N2CCCC(CC(=O)NC(Cc3ccco3)C(=O)NCc3ccccc3CC(=O)N1)C2` (centres unmarked) [JOBBt] gave an IC50 of 49 ± 6 µM. Turning to `NCCOCCNC(=O)C1CCNC(=O)C=CC(=O)N2CCCC2CC(=O)NC(Cc2ccco2)C(=O)NCc2ccccc2CC(=O)N1` (centres unmarked) [JOCBt], the IC50 was > 100 µM. With `NC(=O)C1CCNC(=O)C=CC(=O)NC2CCC(CC2)C(=O)NC(Cc2ccco2)C(=O)NCc2ccccc2CC(=O)N1` (centres unmarked) [JOGBt-A], the IC50 is > 100 µM. Take `NCCOCCNC(=O)C1CNC(=O)C=CC(=O)N2CCCC(C2)C(=O)NC(Cc2ccco2)C(=O)NCc2ccccc2CC(=O)N1` (centres unmarked) [JOMAt]: the IC50 was > 100 µM. Consider `NCCOCCNC(=O)C1CCNC(=O)C=CC(=O)N2CCCC(C2)C(=O)NC(Cc2ccco2)C(=O)NCc2ccccc2CC(=O)N1` (centres unmarked) [JOMBc], for which the IC50 is > 100 µM. The compound `NC(=O)C1CCNC(=O)C=CC(=O)N2CCCC(C2)C(=O)NC(Cc2ccco2)C(=O)NCc2ccccc2CC(=O)N1` (centres unmarked) [JOMBt-A] registered an IC50 of 18 ± 3 µM. Take `NCCCOCCOCCOCCCNC(=O)C1CCNC(=O)C=CC(=O)N2CCCC(C2)C(=O)NC(Cc2ccco2)C(=O)NCc2ccccc2CC(=O)N1` (centres unmarked) [JOMBt-D]: it took 5.2 ± 0.3 µM to reach half-maximal inhibition (IC50). On to `NCCOCCNC(=O)C1CCCNC(=O)C=CC(=O)N2CCCC(C2)C(=O)NC(Cc2ccco2)C(=O)NCc2ccccc2CC(=O)N1` (centres unmarked) [JOMCt], for which the IC50 is > 100 µM.

For `NCCOCCNC(=O)C1CCNC(=O)Cc2ccccc2CNC(=O)C(Cc2ccco2)NC(=O)C2CCCN(C2)C(=O)C=CC(=O)N1` (centres unmarked) [JOMFc], the IC50 is > 100 µM. The same measure, in the same setting: in the case of `NCCOCCNC(=O)C1CCNC(=O)Cc2ccccc2CNC(=O)C(Cc2ccco2)NC(=O)C2CCCN(C2)C(=O)C=CC(=O)N1` (centres unmarked) [JOMFt] it was ~90 µM.

Still in this experiment, the particulars now being: IC50 CypD cis, cis olefin isomer.
As to `CC(C)(C)CC1NC(=O)C(CC2CCCCC2)NC(=O)C2CCCN2C(=O)C=CC(=O)NCc2cccc(c2)CC(C(=O)NCCOCCN)NC1=O` (centres unmarked) [HJJJt/c], the IC50 is > 100 µM. Take `CC(C)(C)CC1NC(=O)C(Cc2ccco2)NC(=O)C2CCCN2C(=O)C=CC(=O)NCc2cccc(c2)CC(C(=O)NCCOCCN)NC1=O` (centres unmarked) [HOJJt/c]: the IC50 was > 100 µM. In the case of `NCCOCCNC(=O)C1CNC(=O)C=CC(=O)NC2CCC(CC2)C(=O)NC(Cc2ccco2)C(=O)NCc2ccccc2CC(=O)N1` (centres unmarked) [JOGA], the IC50 was > 100 µM. Turning to `NCCOCCNC(=O)C1CCNC(=O)C=CC(=O)N2CCCC(C2)C(=O)NC(Cc2ccco2)C(=O)NCc2ccccc2CC(=O)N1` (centres unmarked) [JOMB], the IC50 was > 100 µM.

The experiment is the same for the next values; noted with them: IC50 CypD trans, trans olefin isomer.
`CC(C)(C)CC1NC(=O)C(CC2CCCCC2)NC(=O)C2CCCN2C(=O)C=CC(=O)NCc2cccc(c2)CC(C(=O)NCCOCCN)NC1=O` (centres unmarked) [HJJJt/c]: the IC50 was > 100 µM. Still for that read-out and setting: in the case of `CC(C)(C)CC1NC(=O)C(Cc2ccco2)NC(=O)C2CCCN2C(=O)C=CC(=O)NCc2cccc(c2)CC(C(=O)NCCOCCN)NC1=O` (centres unmarked) [HOJJt/c] it was > 100 µM. Regarding `NCCOCCNC(=O)C1CNC(=O)C=CC(=O)NC2CCC(CC2)C(=O)NC(Cc2ccco2)C(=O)NCc2ccccc2CC(=O)N1` (centres unmarked) [JOGA], the IC50 is > 100 µM.
